system: Human Umbilical Vein Endothelial cells (VEGF-stimulated); experiment: HUVEC proliferation assay, VEGF-stimulated; type: cell-based; conditions: VEGF 50 ng/mL, 72 h, CyQuant, read-out: inhibited VEGF-stimulated HUVEC proliferation at a level
Protocol: Human Umbilical Vein Endothelial cells are purchased from Clonetics, Inc., as cryopreserved cells harvested from a pool of donors. These cells, at passage 1, are thawed and expanded in EBM-2 complete medium, until passage 2 or 3. The cells are trypsinized, washed in DMEM+10% FBS+antibiotics, and spun at 1000 rpm for 10 min. Prior to centrifugation of the cells, a small amount is collected for a cell count. After centrifugation, the medium is discarded, and the cells are resuspended in the appropriate volume of DMEM+10% FBS+antibiotics to achieve a concentration of 3×10^5 cells/mL. Another cell count is performed to confirm the cell concentration. The cells are diluted to 3×10^4 cells/mL in DMEM+10% FBS+antibiotics, and 100 μL of cells are added to a 96-well plate. The cells are incubated at 37° C. for 22 h.
Prior to the completion of the incubation period, compound dilutions are prepared. Five-point, five-fold serial dilutions are prepared in DMSO, at concentrations 400-fold greater than the final concentrations desired. 2.5 μL of each compound dilution are diluted further in a total of 1 mL DMEM+10% FBS+antibiotics (400× dilution). Medium containing 0.25% DMSO is also prepared for the 0 μM compound sample. At the 22-hour timepoint, the medium is removed from the cells, and 100 μL of each compound dilution is added. The cells are incubated at 37° C. for 2-3 h.
During the compound pre-incubation period, the growth factors are diluted to the appropriate concentrations. Solutions of DMEM+10% FBS+antibiotics, containing either VEGF or bFGF at the following concentrations: 50, 10, 2, 0.4, 0.08, and 0 ng/mL are prepared. For the compound-treated cells, solutions of VEGF at 550 ng/mL or bFGF at 220 ng/mL for 50 ng/mL or 20 ng/mL final concentrations, respectively, are prepared since 10 μL of each will be added to the cells (110 μL final volume). At the appropriate time after adding the compounds, the growth factors are added. VEGF is added to one set of plates, while bFGF is added to another set of plates. For the growth factor control curves, the media on wells B4-G6 of plates 1 and 2 are replaced with media containing VEGF or bFGF at the varying concentrations (50-0 ng/mL). The cells are incubated at 37° C. for an additional 72 h.
At the completion of the 72 h incubation period, the medium is removed, and the cells are washed twice with PBS. After the second wash with PBS, the plates are tapped gently to remove excess PBS, and the cells are placed at −70° C. for at least 30 min. The cells are thawed and analyzed using the CyQuant fluorescent dye (Molecular Probes C-7026), following the manufacturer's recommendations. The plates are read on a Victor/Wallac 1420 workstation at 485 nm/530 nm (excitation/emission). Raw data are collected and analyzed using a 4-parameter fit equation in XLFit. IC50 values are then determined.

Structure (SMILES)	IC50 [nM]
CNc1cc(CNc2ncccc2C(=O)Nc2ccc3c(c2)N(S(C)(=O)=O)CC3(C)C)ccn1 [Example 1058, N-(3,3-dimethyl-1-(methylsulfonyl)-2,3-dihydro-1H-indol-6-yl)-2-(((2-(methylamino)-4-pyridinyl)methyl)amino)-3-pyridinecarboxamide]	< 50
CC(C)(C)OC(=O)N1CCC[C@@H]1COc1cc(NC(=O)c2cccnc2NCc2ccncc2)cc(C(F)(F)F)c1 [Example 916, (R) N-[3-(1-Boc-pyrrolidin-2-ylmethoxy)-5-trifluoromethyl-phenyl]-2-[(pyridin-4-ylmethyl)-amino]-nicotinamide]	< 50
CNc1nccc(CNc2ncccc2C(=O)Nc2ccc3c(n2)NC(=O)CC3(C)C)n1 [Example 1135, N-(5,5-Dimethyl-7-oxo-5,6,7,8-tetrahydro-[1,8]naphthyridin-2-yl)-2-[(2-methylamino-pyrimidin-4-ylmethyl)-amino]-nicotinamide]	< 50
CC(C)c1ccc(NC(=O)c2cc(F)cnc2NCc2ccncc2)cc1 [Example 67, {5-Fluoro-2-[(4-pyridylmethyl)amino](3-pyridyl)}-N-[4-(isopropyl)phenyl]carboxamide]	< 50
O=C(Nc1ccc(Oc2ccccc2)cc1)c1cccnc1NCc1ccncc1 [Example 158, N-(4-Phenoxyphenyl){2-[(4-pyridylmethyl)amino](3-pyridyl)}carboxamide]	< 50
O=C(Nc1ccc(Cl)cc1)c1cccnc1NCc1ccnc2ccccc12 [Example 20, N-(4-Chlorophenyl){2-[(4-quinolylmethyl)amino](3-pyridyl)}carboxamide]	< 50
CC1(C)CN(C(=O)c2cc[n+]([O-])cc2)c2cc(NC(=O)c3cccnc3NCc3ccncc3)ccc21 [Example 1100, N-[3,3-Dimethyl-1-(1-oxy-pyridine-4-carbonyl)-2,3-dihydro-1H-indol-6-yl]-2-[(pyridin-4-ylmethyl)-amino]-nicotinamide]	< 50
CNc1cc(CNc2ncccc2C(=O)Nc2cc(OC[C@@H]3CCCN3C)cc(C(F)(F)F)c2)ccn1 [Example 1143, 2-[(2-Methylamino-pyridin-4-ylmethyl)-amino]-N-[3-(1-methyl-pyrrolidin-2-ylmethoxy)-5-trifluoromethyl-phenyl]-nicotinamide]	< 50
COc1nccc(CNc2ncccc2C(=O)Nc2ccc3c(c2)N(C(C)=O)CC3(C)C)n1 [Example 1046, N-(1-acetyl-3,3-dimethyl-2,3-dihydro-1H-indol-6-yl)-2-(((2-(methyloxy)-4-pyrimidinyl)methyl)amino)-3-pyridinecarboxamide]	< 50
CC1(C)CNC(=O)c2cc(NC(=O)c3cccnc3NCc3ccncc3)ccc21 [Example 946, N-(4,4-Dimethyl-1-oxo-1,2,3,4-tetrahydro-isoquinolin-7-yl)-2-[(pyridin-4-ylmethyl)-amino]-nicotinamide]	< 50
COc1nccc(CNc2ncccc2C(=O)Nc2cc(OC[C@@H]3CCCN3C)cc(C(F)(F)F)c2)n1 [Example 1047, 2-(((2-(methyloxy)-4-pyrimidinyl)methyl)amino)-N-(3-((((2S)-1-methyl-2-pyrrolidinyl)methyl)oxy)-5-(trifluoromethyl)phenyl)-3-pyridinecarboxamide]	< 50
CNc1cc(CNc2ncccc2C(=O)Nc2ccc3c(c2)N(C(C)=O)CC3(C)C)ccn1 [Example 1103, N-(1-Acetyl-3,3-dimethyl-2,3-dihydro-1H-indol-6-yl)-2-[(2-methylamino-pyridin-4-ylmethyl)-amino]-nicotinamide]	< 50
COc1nccc(CNc2ncccc2C(=O)Nc2ccc(C(C)(C)C)c(NC(=O)CN(C)C)c2)n1 [Example 1074, N-(4-(1,1-dimethylethyl)-3-((N,N-dimethylglycyl)amino)phenyl)-2-(((2-(methyloxy)-4-pyrimidinyl)methyl)amino)-3-pyridinecarboxamide]	< 50
CNc1cc(CNc2ncccc2C(=O)Nc2ccc3c(c2)NCC3(C)C)ccn1 [Example 1104, N-(3,3-Dimethyl-2,3-dihydro-1H-indol-6-yl)-2-[(2-methylamino-pyridin-4-ylmethyl)-amino]-nicotinamide]	< 50
O=C(Nc1ccc(C(F)(F)C(F)(F)F)cc1)c1cccnc1NCc1ccncc1 [Example 78, N-[4-(1,1,2,2,2-Pentafluoroethyl)phenyl]{2-[(4-pyridylmethyl)amino](3-pyridyl)}carboxamide]	< 50
CC(C)(C)c1ccc(NC(=O)c2cccnc2NCc2ccnc(OCCCN3CCOCC3)c2)cc1 [Example 904, N-(4-tert-Butyl-phenyl)-2-{[2-(3-morpholin-4-yl-propoxy)-pyridin-4-ylmethyl]-amino}-nicotinamide]	< 50
CNc1cc(CNc2ncccc2C(=O)Nc2ccc3c(c2)NC(=O)CC3(C)C)ccn1 [Example 1119, N-(4,4-Dimethyl-2-oxo-1,2,3,4-tetrahydro-quinolin-7-yl)-2-[(2-methylamino-pyridin-4-ylmethyl)-amino]-nicotinamide]	< 50
CN1CCC[C@H]1COc1cc(NC(=O)c2cccnc2NCc2ccncn2)cc(C(F)(F)F)c1 [Example 1025, N-(3-((((2S)-1-Methyl-2-pyrrolidinyl)methyl)oxy)-5-(trifluoromethyl)phenyl)-2-((4-pyrimidinylmethyl)amino)-3-pyridinecarboxamide]	< 50
CNc1nccc(CNc2ncccc2C(=O)Nc2ccc3c(c2)N(S(C)(=O)=O)CC3(C)C)n1 [Example 1060, N-(3,3-dimethyl-1-(methylsulfonyl)-2,3-dihydro-1H-indol-6-yl)-2-(((2-(methylamino)-4-pyrimidinyl)methyl)amino)-3-pyridinecarboxamide]	< 50
O=C(Nc1ccc(Cl)c(Cl)c1)c1cccnc1NCc1ccncc1 [Example 4, N-(3,4-Dichlorophenyl){2-[(4-pyridylmethyl)amino](3-pyridyl)}-carboxamide]	< 50
CNc1nccc(CNc2ncccc2C(=O)Nc2ccc3c(c2)CN(C)CC3(C)C)n1 [Example 1041, 2-(((2-(methylamino)-4-pyrimidinyl)methyl)amino)-N-(2,4,4-trimethyl-1,2,3,4-tetrahydro-7-isoquinolinyl)-3-pyridinecarboxamide]	< 50
CC(=O)N1CC(C)(C)c2ccc(NC(=O)c3cccnc3Nc3ccc4c(c3)OCCO4)cc21 [Example 991, N-(1-Acetyl-3,3-dimethyl-2,3-dihydro-1H-indol-6-yl)-2-(2,3-dihydro-benzo[1,4]dioxin-6-ylamino)-nicotinamide]	< 50
CC1(C)CCNc2cc(NC(=O)c3cccnc3NCc3ccnc(N4CCOCC4)c3)ccc21 [Example 1154, N-(4,4-Dimethyl-1,2,3,4-tetrahydro-quinolin-7-yl)-2-[(2-morpholin-4-yl-pyridin-4-ylmethyl)-amino]-nicotinamide]	< 50
CNc1cc(CNc2ncccc2C(=O)Nc2cc(O[C@@H]3CCOC3)cc(C(F)(F)F)c2)ccn1 [Example 1083, 2-(((2-(methylamino)-4-pyridinyl)methyl)amino)-N-(3-((3R)-tetrahydro-3-furanyloxy)-5-(trifluoromethyl)phenyl)-3-pyridinecarboxamide]	< 50
CC1(C)CCNc2cc(NC(=O)c3cccnc3NCc3ccncc3)ccc21 [Example 1109, N-(4,4-Dimethyl-1,2,3,4-tetrahydro-quinolin-7-yl)-2-[(pyridin-4-ylmethyl)-amino]-nicotinamide]	< 50

— US7687643B2, “Process for preparing 3,3-dimethylindolines” (Amgen Inc., priority 2001, dated 2010)
